In patent US11866430B2, “Naphthyridinone compounds useful as T cell activators” (priority 2018, dated 2024):

Experiments:
[1] = biological target: human DGKα (Homo sapiens (Human), UniProt P23743); test: DGKα LIPGLO assay (extruded liposome substrate); format: biochemical
Procedure, shortened: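 Human full-length DGKα, His-tagged and produced in Sf9 cells, assayed at 20 nM (4× stock) on extruded liposomes of PS, 0.25 mM DAG and 2.75 mM PC, preincubated 10 min. Reaction started with 300 μM ATP (stock) and ran 1 h in MOPS pH 7.5/MgCl2/CaCl2/DTT buffer.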

[2] = biological target: human DGKζ (Homo sapiens (Human), UniProt Q13574); test: DGKζ LIPGLO assay (extruded liposome substrate); format: biochemical; conditions: extruded liposome substrate; read-out: DGKζ LIPGLO IC50
Sequence of human DGKζ (Q13574 other isoform, or with tags, fused parts or gaps): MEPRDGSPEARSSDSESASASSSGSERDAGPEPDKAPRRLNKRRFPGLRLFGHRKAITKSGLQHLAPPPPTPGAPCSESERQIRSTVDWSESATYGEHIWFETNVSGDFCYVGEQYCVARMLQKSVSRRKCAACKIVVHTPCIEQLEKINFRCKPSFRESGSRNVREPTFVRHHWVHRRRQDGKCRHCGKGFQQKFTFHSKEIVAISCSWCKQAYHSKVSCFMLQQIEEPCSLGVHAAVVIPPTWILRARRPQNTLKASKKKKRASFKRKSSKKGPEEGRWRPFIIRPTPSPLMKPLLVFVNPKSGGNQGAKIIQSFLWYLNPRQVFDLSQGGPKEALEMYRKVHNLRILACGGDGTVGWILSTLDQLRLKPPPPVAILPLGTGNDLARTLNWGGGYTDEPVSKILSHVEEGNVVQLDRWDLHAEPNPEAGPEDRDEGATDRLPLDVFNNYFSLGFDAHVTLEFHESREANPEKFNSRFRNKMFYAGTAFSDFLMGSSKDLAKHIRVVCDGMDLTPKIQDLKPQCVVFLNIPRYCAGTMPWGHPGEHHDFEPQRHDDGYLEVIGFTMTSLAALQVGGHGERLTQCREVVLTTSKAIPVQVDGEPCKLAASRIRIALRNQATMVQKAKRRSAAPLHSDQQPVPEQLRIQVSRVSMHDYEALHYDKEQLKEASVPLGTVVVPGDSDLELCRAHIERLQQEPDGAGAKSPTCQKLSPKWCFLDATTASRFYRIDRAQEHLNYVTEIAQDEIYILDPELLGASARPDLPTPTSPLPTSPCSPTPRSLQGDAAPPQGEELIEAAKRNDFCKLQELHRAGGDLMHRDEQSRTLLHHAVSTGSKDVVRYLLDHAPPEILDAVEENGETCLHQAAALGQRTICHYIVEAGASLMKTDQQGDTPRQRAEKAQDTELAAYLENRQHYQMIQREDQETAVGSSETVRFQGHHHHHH
Procedure, shortened: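 Sf9-derived DGKζ was premixed 10 min with PC/DAG/PS liposomes (100 nm extruded) in MOPS pH 7.5 buffer containing NaCl, MgCl2, CaCl2 and DTT.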

[3] = tested on: naïve human CD8 T cells; test: cells; conditions: Homo sapiens, T-cell, read-out: HuCD8 INFG Normalized EC50, anti-CD3 plus anti-CD28 as baseline; 3 μM Example 40 co-stimulation as 100% activation
Method: Frozen naïve human CD8 T cells were thawed in ATM-V media, incubated for 2 h in 37° C., and counted. The 384-well tissue culture plate was coated overnight at 4° C. with 20 μl anti-human CD3 at 0.05 μg/mL in PBS, which was removed off the plate before 40,000 cells per 40 microliters CD8 T cells with 0.1 μg/mL soluble anti-human CD28 were added to each well. The compounds were transferred using an Echo liquid handler to the cell plate immediately after the cells were plated. After 20 h incubation at 37° C. incubator, 3 microliters per well supernatants transferred into a new 384-well white assay plate for cytokine measurement.
Interferon-γ (IFN-γ) was quantitated using the AlphaLISA kit (Cat #AL217) as described by the manufacturer manual (Perkin Elmer). The counts from each well were converted to IFN-γ concentration […].

Sequence of human DGKα (P23743 other isoform, or with tags, fused parts or gaps): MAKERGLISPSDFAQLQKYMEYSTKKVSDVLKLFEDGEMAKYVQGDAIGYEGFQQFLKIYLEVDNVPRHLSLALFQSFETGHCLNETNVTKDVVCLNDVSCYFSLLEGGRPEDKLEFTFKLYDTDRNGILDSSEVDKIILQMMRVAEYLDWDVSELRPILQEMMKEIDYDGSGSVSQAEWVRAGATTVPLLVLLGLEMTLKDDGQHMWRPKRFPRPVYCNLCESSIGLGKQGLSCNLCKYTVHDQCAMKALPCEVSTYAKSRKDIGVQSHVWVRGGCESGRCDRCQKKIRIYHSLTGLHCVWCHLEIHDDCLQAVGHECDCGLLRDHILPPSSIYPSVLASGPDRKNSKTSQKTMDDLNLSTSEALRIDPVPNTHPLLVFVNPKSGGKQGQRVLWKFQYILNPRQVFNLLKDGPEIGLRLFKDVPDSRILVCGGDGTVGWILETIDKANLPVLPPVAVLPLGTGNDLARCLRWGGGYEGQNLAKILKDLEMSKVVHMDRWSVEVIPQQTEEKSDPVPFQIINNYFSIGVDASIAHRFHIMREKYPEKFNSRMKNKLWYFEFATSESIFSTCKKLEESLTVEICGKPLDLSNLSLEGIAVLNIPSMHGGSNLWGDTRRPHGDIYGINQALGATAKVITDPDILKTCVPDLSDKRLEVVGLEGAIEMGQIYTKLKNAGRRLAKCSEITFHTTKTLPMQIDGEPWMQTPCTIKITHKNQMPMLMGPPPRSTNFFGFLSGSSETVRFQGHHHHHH

Question: Which results are given for `Cc1ccc2c(n1)c(N1CCN(C3CCOc4ccccc43)CC1)c(C#N)c(=O)n2C` (stereo not drawn) [Example 253, 4-[4-(3,4-dihydro-2H-1-benzopyran-4-yl)piperazin-1-yl]-1,6-dimethyl-2-oxo-1,2-dihydro-1,5-naphthyridine-3-carbonitrile]?
Answer: IC50 [1]: 40 µM; IC50 [2]: 7.4 µM; EC50 [3]: 2.51 µM

Question: Which results are given for `COc1cc(C)ccc1C(c1ccc(F)cc1)N1CCN(c2c([N+](=O)[O-])c(=O)n(C)c3ccc(C#N)nc23)CC1` (stereo not drawn) [Example 416, 8-{4-[(4-fluorophenyl)(2-methoxy-4-methylphenyl)methyl]piperazin-1-yl}-5-methyl-7-nitro-6-oxo-5,6-dihydro-1,5-naphthyridine-2-carbonitrile]?
Answer: IC50 [1]: 4.8 µM; IC50 [2]: 0.91 µM; EC50 [3]: 0.03 µM

Question: Which results are given for `COc1ccc2c(n1)c(N1CCN(C(c3ccc(F)cc3)c3ccccn3)CC1)c(C#N)c(=O)n2C` (stereo not drawn) [Example 403, 4-{4-[(4-fluorophenyl)(pyridin-2-yl)methyl]piperazin-1-yl}-6-methoxy-1-methyl-2-oxo-1,2-dihydro-1,5-naphthyridine-3-carbonitrile]?
Answer: IC50 [1]: 26 µM; IC50 [2]: 5.7 µM; EC50 [3]: 1.49 µM

Question: For `Cn1c(=O)c(C#N)c(N2CCN(C(c3ccccc3)c3ccc(Cl)cc3)CC2)c2nc(Br)ccc21` (racemic) [Example 429, 6-bromo-4-{4-[(4-chlorophenyl)(phenyl)methyl]piperazin-1-yl}-1-methyl-2-oxo-1,2-dihydro-1,5-naphthyridine-3-carbonitrile], which IC50 [1] is on record?
Answer: 1.8 µM

Question: And the IC50 [2]?
Answer: 9.4 µM

Question: What about the EC50 [3] of the same compound?
Answer: 0.08 µM

Question: Which IC50 [1] does the source give for `COc1ccc2c(n1)c(N1CCN(C(c3ccc(Cl)cc3)c3ccc(Cl)cc3)CC1)c(C#N)c(=O)n2C` [Example 395, 4-{4-[bis(4-chlorophenyl)methyl]piperazin-1-yl}-6-methoxy-1-methy-2-oxo-1,2-dihydro-1,5-naphthyridine-3-carbonitrile] here?
Answer: 14 µM

Question: What about the IC50 [2] of the same compound?
Answer: 3 µM

Question: What about the EC50 [3] of the same compound?
Answer: 0.09 µM

Question: Which IC50 [1] does the source give for `COc1ccc2c(n1)c(N1CCN(C(c3ccc(F)cc3OC)c3ccc(F)cc3OC)CC1)c(C#N)c(=O)n2C` [Example 402, 4-{4-[bis(4-fluoro-2-methoxyphenyl)methyl]piperazin-1-yl}-6-methoxy-1-methyl-2-oxo-1,2-dihydro-1,5-naphthyridine-3-carbonitrile] here?
Answer: 160 µM

Question: What about the IC50 [2] of the same compound?
Answer: 3.5 µM

Question: What about the EC50 [3] of the same compound?
Answer: 1.78 µM

Question: What does the source list for `COc1ccc2c(n1)c(N1CCN(C(c3ccc(F)cc3)c3cccnc3OC)CC1)c(C#N)c(=O)n2C` (stereo not drawn) [Example 396, 4-{4-[(4-fluorophenyl)(2-methoxypyridin-3-yl)methyl]piperazin-1-yl}-6-methoxy-1-methyl-2-oxo-1,2-dihydro-1,5-naphthyridine-3-carbonitrile]?
Answer: IC50 [1]: 21 µM; IC50 [2]: 5.8 µM; EC50 [3]: 2.66 µM

Question: For `COc1cccnc1C(c1ccc(F)cc1)N1CCN(c2c(C#N)c(=O)n(C)c3ccc(C#N)nc23)CC1` (stereo not drawn) [Example 410, 8-{4-[(4-fluorophenyl)(3-methoxypyridin-2-yl)methyl]piperazin-1-yl}-5-methyl-6-oxo-5,6-dihydro-1,5-naphthyridine-2,7-dicarbonitrile], which IC50 [1] is on record?
Answer: 5.4 µM

Question: What about the IC50 [2] of the same compound?
Answer: 2.2 µM

Question: And the EC50 [3]?
Answer: 0.09 µM

Question: What does the source list for `Cn1c(=O)c(C#N)c(N2CCN(C(c3ccccc3)c3ccc(F)cc3)CC2)c2nc(Br)ccc21` (racemic) [Example 430, 6-bromo-4-{4-[(4-fluorophenyl)(phenyl)methyl]piperazin-1-yl}-1-methyl-2-oxo-1,2-dihydro-1,5-naphthyridine-3-carbonitrile]?
Answer: IC50 [1]: 1.9 µM; IC50 [2]: 3 µM; EC50 [3]: 0.3 µM

Question: For `COc1ccc2c(n1)c(N1CCN(C(c3ccc(F)cc3)c3ncccc3OC)CC1)c(C#N)c(=O)n2C` (stereo not drawn) [Example 397, 4-{4-[(4-fluorophenyl)(3-methoxypyridin-2-yl)methyl]piperazin-1-yl}-6-methoxy-1-methyl-2-oxo-1,2-dihydro-1,5-naphthyridine-3-carbonitrile], which IC50 [1] is on record?
Answer: 16 µM

Question: What about the IC50 [2] of the same compound?
Answer: 13 µM

Question: What about the EC50 [3] of the same compound?
Answer: 4.47 µM

Question: For `Cn1c(=O)c(C#N)c(N2CCN([C@@H](c3ccccc3)c3ccc(Cl)cc3)CC2)c2nc(C#N)ccc21` [Example 414, 8-{4-[(S)-(4-chlorophenyl)(phenyl)methyl]piperazin-1-yl}-5-methyl-6-oxo-5,6-dihydro-1,5-naphthyridine-2,7-dicarbonitrile], which IC50 [1] is on record?
Answer: 9 µM

Question: And the IC50 [2]?
Answer: 1.5 µM

Question: What about the EC50 [3] of the same compound?
Answer: 0.16 µM

Question: Which results are given for `COCCC(C)N1CCN(c2c(C#N)c(=O)n(C)c3ccc(C)nc23)CC1` (stereo not drawn) [Example 252, 4-[4-(4-methoxybutan-2-yl)piperazin-1-yl]-1,6-dimethyl-2-oxo-1,2-dihydro-1,5-naphthyridine-3-carbonitrile]?
Answer: IC50 [1]: > 240 µM; IC50 [2]: 200 µM; EC50 [3]: 10 µM

Question: Which IC50 [1] does the source give for `COc1ccc2c(n1)c(N1CCN(C(c3ccc(F)cc3)c3ccc(F)cc3OC)CC1)c(C#N)c(=O)n2C` (single isomer, unassigned) [Example 413, 4-{4-[(4-fluoro-2-methoxyphenyl)(4-fluorophenyl)methyl]piperazin-1-yl}-6-methoxy-1-methyl-2-oxo-1,2-dihydro-1,5-naphthyridine-3-carbonitrile] here?
Answer: 3.3 µM

Question: What about the IC50 [2] of the same compound?
Answer: 0.97 µM

Question: What about the EC50 [3] of the same compound?
Answer: 0.04 µM

Question: Which IC50 [1] does the source give for `COc1cc(F)ccc1C(c1ccc(F)cc1OC)N1CCN(c2c(C#N)c(=O)n(C)c3ccc(C)nc23)CC1` [Example 251, 4-{4-[bis(4-fluoro-2-methoxyphenyl)methyl]piperazin-1-yl}-1,6-dimethyl-2-oxo-1,2-dihydro-1,5-naphthyridine-3-carbonitrile] here?
Answer: > 240 µM

Question: What about the IC50 [2] of the same compound?
Answer: 9 µM

Question: What about the EC50 [3] of the same compound?
Answer: 0.58 µM

Question: Which IC50 [1] does the source give for `Cn1c(=O)c(C#N)c(N2CCN(C(c3ccc(Cl)cc3)c3ccc(Cl)cc3)CC2)c2nc(Br)ccc21` [Example 393, 4-{4-[bis(4-chlorophenyl)methyl]piperazin-1-yl}-6-bromo-1-methyl-2-oxo-1,2-dihydro-1,5-naphthyridine-3-carbonitrile] here?
Answer: 9 µM

Question: And the IC50 [2]?
Answer: > 240 µM

Question: And the EC50 [3]?
Answer: 0.17 µM

Question: How did the IC50 [1] turn out when `Cn1c(=O)c(C#N)c(N2CCN(C(c3ccc(F)cc3)c3ccccn3)CC2)c2nc(C#N)ccc21` (stereo not drawn) [Example 400, 8-{4-[(4-fluorophenyl)(pyridin-2-yl)methyl]piperazin-1-yl}-5-methyl-6-oxo-5,6-dihydro-1,5-naphthyridine-2,7-dicarbonitrile] was run?
Answer: 5.4 µM

Question: What about the IC50 [2] of the same compound?
Answer: 2.1 µM

Question: What about the EC50 [3] of the same compound?
Answer: 0.05 µM

Question: Which results are given for `Cc1ccc2c(n1)c(N1CCN(C(c3ccc(F)cc3)c3ccccn3)CC1)c(C#N)c(=O)n2C` (stereo not drawn) [Example 256, 4-{4-[(4-fluorophenyl)(pyridin-2-yl)methyl]piperazin-1-yl}-1,6-dimethyl-2-oxo-1,2-dihydro-1,5-naphthyridine-3-carbonitrile]?
Answer: IC50 [1]: 2.7 µM; IC50 [2]: 10 µM; EC50 [3]: 0.24 µM

Question: `Cn1c(=O)c(C#N)c(N2CCN(C(c3ccc(Cl)cc3)c3ccc(Cl)cc3)CC2)c2nc(C#N)ccc21` [Example 394, 8-{4-[bis(4-chlorophenyl)methyl]piperazin-1-yl}-5-methyl-6-oxo-5,6-dihydro-1,5-naphthyridine-2,7-dicarbonitrile] was tested. Which IC50 [1] did it give?
Answer: 3.9 µM

Question: What about the IC50 [2] of the same compound?
Answer: 1.2 µM

Question: What about the EC50 [3] of the same compound?
Answer: 0.01 µM

Question: Which IC50 [1] does the source give for `COc1ccc2c(n1)c(N1CCN(C(c3ncccn3)c3ccc(F)cc3OC)CC1)c(C#N)c(=O)n2C` (stereo not drawn) [Example 401, 4-{4-[(4-fluoro-2-methoxyphenyl)(pyrimidin-2-yl)methyl]piperazin-1-yl}-6-methoxy-1-methyl-2-oxo-1,2-dihydro-1,5-naphthyridine-3-carbonitrile] here?
Answer: 81 µM

Question: And the IC50 [2]?
Answer: 7.6 µM

Question: What about the EC50 [3] of the same compound?
Answer: 10 µM
